Results published in patent publication US5401754A, “Agent for treating thrombosis and phosphodiesterase inhibitor” (Otsuka Pharmaceutical Company, Limited, priority 1991, dated 1995).

Key:
[1] = test system: platelet aggregation (platelet rich plasma); test: Platelet aggregation inhibitory activity, collagen-induced (Pharmacological test 1); assay type: cell-based, human beings; details: Homo sapiens, Collagen (1 to 4 μg/ml), read-out: Platelet aggregation inhibitory rate (%); for inhibition at 100 µM: Conc. 10^-4 mol; for inhibition at 10 µM: Conc. 10^-5 mol; for inhibition at 1 µM: Conc. 10^-6 mol
Procedure: (§1) The platelet aggregation inhibitory activity of test compounds was measured in accordance with the method of Born et al. [J. Physiol., London, 162, 67, (1962)] using a platelet aggregator [Platelet Aggregation Tracer manufactured by Niko Biosceince K.K.].
(§2) To 9 volumes of blood taken from human beings was added 1 volume of 3.8% citric acid and this sample was centrifuged at 1100 rpm for 10 minutes to give a platelet rich plasma (PRP). The remaining sample was further centrifuged at 3000 rpm for 15 minutes to give a platelet poor plasma (PPP).
(§3) The platelets in the PRP obtained above was counted using Coulter Counter, Coulter electronics inc. and diluted to 300000 platelets/μl with the PPP to prepare a PRP solution.
(§4) A cell for measurement of aggregation was charged with a solution containing a fixed concentration of test compounds (1 to 2 μl) and the PRP solution prepared above (200 μl) and warmed at 37° C. for 1 minute. Then, to the cell was added a suspension of adenosine diphosphate (ADP, manufactured by Sigma) or collagen (Collagen Reagent Horm, manufactured by Hormon-Chemie) to induce platelet aggregation and the transparency of the cell was measured and a platelet aggregation curve was prepared. The final concentration of the above ADP and the collagen was adjusted to 14 to 16 μM and 1 to 4 μg/ml, respectively.
(§5) Maximum Aggregation Rate (MAR) of platelets was calculated from the platelet aggregation curve by the following formula: […]
(§6) wherein (a) represents the transparency of PRP measured in the similar test, (b) represents the transparency of the PRP solution containing the test compound and the aggregation inducer at the time of maximum change in the above test, and (c) represents the transparency of the PPP solution measured in the similar test.
(§7) MAR for control with no addition of the test compound was also calculated, and based on this value, the platelet aggregation inhibitory rate (%) of each test compound at various concentrations in the above test was calculated from the following formula:
(§8) Inhibitory rate=[1-(MAR of PRP with addition of test compound)/(MAR of PRP
(§9) with no addition of test compound)]×100

[2] = test system: platelet aggregation (platelet rich plasma); test: Platelet aggregation inhibitory activity, ADP-induced (Pharmacological test 1); assay type: cell-based, human beings; details: Homo sapiens, ADP (14 to 16 μM), read-out: Platelet aggregation inhibitory rate (%); for inhibition at 100 µM: Conc. 10^-4 mol; for inhibition at 10 µM: Conc. 10^-5 mol; for inhibition at 1 µM: Conc. 10^-6 mol
Procedure: as §1, §2, §3, §4, §5, §6, §7, §8, §9

C-AMP phosphodiesterase = C-AMP phosphodiesterase inhibitory activity (Pharmacological test 2); assay type: biochemical, dog; details: C-AMP 0.4 μmol
[3] = test system: aggregates of platelet (platelet rich plasma); test: Platelet aggregate dissociation, ADP-induced aggregates (Pharmacological Test 4); assay type: cell-based, human beings; details: Homo sapiens, 5 min, after 5 minutes, read-out: Platelet aggregate dissociation rate (%)
Procedure: as §2, §3
(§10) In the same manner as in the above test 1, the obtained PRP solution (200 μl ) was put in cell for measurement of aggregation and the cell was warmed at 37° C. for 1 minute. Thereto was added ADP or collagen suspension (final concentration of 14 to 16 μM and 1 to 4 μg/ml, respectively) without addition of the test compound to form aggregates of platelet. MAR was determined after stable transparency was obtained. This MAR was referred to as "MAR-1". Then, the test compound was added and MAR was determined from the transparency after 5 minutes. This MAR was referred to as "MAR-2".
(§11) Platelet aggregate dissociation rate (%) was calculated in accordance with the following formula: […]
(§12) Platelet aggregate dissociation rate
(§13) (%)=[(MAR-1)-(MAR-2)]/(MAR-1)×100

[4] = test system: aggregates of platelet (platelet rich plasma); test: Platelet aggregate dissociation, collagen-induced aggregates (Pharmacological Test 4); assay type: cell-based, human beings; details: Homo sapiens, 5 min, after 5 minutes, read-out: Platelet aggregate dissociation rate (%)
Procedure: as §2, §3, §10, §11, §12, §13

Brain blood flow = test: Topical blood flow in the brain, colored microspheres, anesthetized dog (Pharmacological Test 3); assay type: in vivo, hybrid dog
Cerebellum blood flow = test: Topical blood flow in the cerebellum, colored microspheres, anesthetized dog (Pharmacological Test 3); assay type: in vivo, hybrid dog
[5] = 3 μg/kg/min i.v. over 30 minutes
[6] = 10 μg/kg/min i.v. over 30 minutes

## CN(Cc1ccccc1)CC(O)COc1ccc2[nH]c(=O)ccc2c1 (stereo not shown) [compound 1]
[1]
  inhibition at 100 µM: 96.3%
  inhibition at 10 µM: 70.7%
  inhibition at 1 µM: 3.8%
[2]
  inhibition at 100 µM: 79%
  inhibition at 10 µM: 31.7%
  inhibition at 1 µM: 14.9%

## COc1cccc(CNCC(O)COc2ccc3[nH]c(=O)ccc3c2)c1 (stereo not shown) [compound 2]
C-AMP phosphodiesterase; Conc. 10^-4 mol
  Phosphodiesterase inhibitory rate (%): 2.32%
C-AMP phosphodiesterase; Conc. 10^-5 mol
  Phosphodiesterase inhibitory rate (%): 48.63%
[1]
  inhibition at 100 µM: 97.2%
  inhibition at 10 µM: 95.7%
  inhibition at 1 µM: 23.1%
[2]
  inhibition at 100 µM: 89.1%
  inhibition at 10 µM: 43.9%
  inhibition at 1 µM: 14.9%

## O=c1ccc2cc(OCC(O)CNCc3ccc(Cl)cc3)ccc2[nH]1 (stereo not shown) [compound 3]
C-AMP phosphodiesterase; Conc. 10^-4 mol
  Phosphodiesterase inhibitory rate (%): 32.46%
C-AMP phosphodiesterase; Conc. 10^-5 mol
  Phosphodiesterase inhibitory rate (%): 86.11%
[1]
  inhibition at 100 µM: 97.8%
  inhibition at 10 µM: 96.7%
  inhibition at 1 µM: 17%
[2]
  inhibition at 100 µM: 78.2%
  inhibition at 10 µM: 44.5%
  inhibition at 1 µM: 13.2%

## CN(Cc1ccccn1)CC(O)COc1ccc2[nH]c(=O)ccc2c1 (stereo not shown) [compound 4]
[1]
  inhibition at 100 µM: 97.2%
  inhibition at 10 µM: 64.3%
[2]
  inhibition at 100 µM: 77.5%
  inhibition at 10 µM: 30.5%
  inhibition at 1 µM: 13.5%

## CN(CCN(C)c1ccccc1)CC(O)COc1ccc2[nH]c(=O)ccc2c1 (stereo not shown) [compound 5]
[1]
  inhibition at 100 µM: 96.5%
  inhibition at 10 µM: 72.9%
  inhibition at 1 µM: 44.4%
[2]
  inhibition at 100 µM: 84.8%
  inhibition at 10 µM: 38.4%
  inhibition at 1 µM: 21.6%

## COc1ccc(CNCC(O)COc2ccc3[nH]c(=O)ccc3c2)cc1 (stereo not shown) [compound 6]
[1]
  inhibition at 100 µM: 97%
  inhibition at 10 µM: 96.7%
  inhibition at 1 µM: 17%
[2]
  inhibition at 100 µM: 77.5%
  inhibition at 10 µM: 43.8%
  inhibition at 1 µM: 7.4%

## COc1ccc(CNCC(O)COc2ccc3[nH]c(=O)ccc3c2)cc1OC (stereo not shown) [compound 7]
[3]; Conc. 10 μmol
  inhibition at 10 µM: 41.5%
[3]; Conc. 30 μmol
  inhibition at 30 µM: 43.3%
[3]; Conc. 100 μmol
  inhibition at 100 µM: 71.7%
C-AMP phosphodiesterase; Conc. 10^-4 mol
  Phosphodiesterase inhibitory rate (%): 15.27%
C-AMP phosphodiesterase; Conc. 10^-5 mol
  Phosphodiesterase inhibitory rate (%): 72.39%
[1]
  inhibition at 100 µM: 96.9%
  inhibition at 10 µM: 91.6%
  inhibition at 1 µM: 4.1%
[4]; Conc. 10 μmol
  inhibition at 10 µM: 13.3%
[4]; Conc. 30 μmol
  inhibition at 30 µM: 26.7%
[4]; Conc. 100 μmol
  inhibition at 100 µM: 28%
[2]
  inhibition at 100 µM: 96.4%
  inhibition at 10 µM: 39%
  inhibition at 1 µM: 9.5%
Brain blood flow; [5]
  Increasing rate of blood flow (%): 25.9 ± 7.0%
Brain blood flow; [6]
  Increasing rate of blood flow (%): 57.8 ± 10.9%
Cerebellum blood flow; [5]
  Increasing rate of blood flow (%): 15.2 ± 11.5%
Cerebellum blood flow; [6]
  Increasing rate of blood flow (%): 29.7 ± 11.5%

## O=c1ccc2cc(OCC(O)CNCc3cccc(Cl)c3)ccc2[nH]1 (stereo not shown) [compound 8]
[1]
  inhibition at 100 µM: 93.1%
  inhibition at 10 µM: 27.7%
  inhibition at 1 µM: 12.3%
[2]
  inhibition at 100 µM: 62%
  inhibition at 10 µM: 27.4%
  inhibition at 1 µM: 5.1%

## CCOc1ccc(CNCC(O)COc2ccc3[nH]c(=O)ccc3c2)cc1OCC (stereo not shown) [compound 9]
C-AMP phosphodiesterase; Conc. 10^-4 mol
  Phosphodiesterase inhibitory rate (%): 50.63%
C-AMP phosphodiesterase; Conc. 10^-5 mol
  Phosphodiesterase inhibitory rate (%): 89.07%

## O=c1ccc2cc(OCC(O)CN(CCO)Cc3ccc(F)cc3)ccc2[nH]1 (stereo not shown) [compound 10]
C-AMP phosphodiesterase; Conc. 10^-4 mol
  Phosphodiesterase inhibitory rate (%): 23.90%
C-AMP phosphodiesterase; Conc. 10^-5 mol
  Phosphodiesterase inhibitory rate (%): 74.63%
